Test results published in US20240262845A1, “PYRIDINIUM SALTS, METHODS OF MAKING, AND METHODS OF USE” (UNIVERSITY OF WYOMING, priority 2023, published 2024).
Counter-ions that a name gives are not always drawn.

Key:
HEK293T cells = assay: In-situ chemoproteomic tryptophan profiling of live HEK293T cells; type: cell-based, human
Description: Cell culture and in-situ tryptophan probe treatment: Cell lines were cultured at 37° C. with 5% CO2. Human embryonic kidney 293 cells expressing a mutant version of the SV40 large T antigen (HEKT293T cells) were grown in Dulbecco's Modified Eagle Medium (DMEM, Gibco) supplemented with 10% fetal bovine serum and 1% penicillin/streptomycin. For in-situ labeling, cells were grown to 90% confluence, washed with Dulbecco's phosphate buffered saline (DPBS), treated with 100× stocks of the tryptophan probes (the pyridinium salts) in OptiMem (GibCo) to generate final concentrations (0 μM, 1 μM, 10 μM, and 100 μM) in 1% dimethylsulfoxide (DMSO). Cells were incubated for 1 hour at 37° C. with 5% CO2 followed by photo-activation at the respective wavelengths for 20 minutes at 4° C. Cells were harvested with a cell scraper, washed 3× with DPBS, and pellets were stored at −80° C. until further use. The following light sources were used for photo-activation:
In-situ tryptophan probe sample processing for peptide-level characterization: Cell pellets were lysed via sonication (QSonica) at 50% amplitude, 2 seconds ON, 3 seconds OFF, 30 seconds in 40 mM HEPES pH 7.5 (4-(2-hydroxyethyl)-1-piperazineethanesulfonic acid), 1.5 mM magnesium chloride (MgCl2), 1% Sodium dodecyl sulfate (SDS), 0.8% NP-40 (also known as nonyl phenoxypolyethoxylethanol), and 1× protease inhibitors (Thermo). Protein concentration was determined by BCA (Pierce). 400 μg protein lysate were taken for copper-catalyzed azide-alkyne cycloaddition (CuAAC) reactions with 100 μM of the acid cleavable DAPBS Biotin Alkyne (Click Chemistry Tools), 250 μM copper sulfate (CuSO4), 500 μM BTTP (C20H34N10O2) (Click Chemistry Tools), and 2.5 mM ascorbate and incubated for 60 minutes at R.T. Samples were precipitated with methanol:chloroform and re-suspended in 50 mM HEPES pH 8.0 containing 1% RapiGest SF (Waters). The samples were reduced with 10 mM dithiothreitol (DTT) (Pierce) and alkylated with 25 mM iodoacetamide (Pierce). The samples were diluted down to 0.1% RapiGest SF and treated with 4 μg Trypsin/LysC (Promega) at 37° C. for 16 hours. The digested peptides were than labeled with isobaric tandem mass tag (TMT) reagents (Thermo) as specified by the manufacturer. The labeled peptides were then combined, concentrated to remove acetonitrile, and re-suspended in 50 mM HEPES pH 8.0 containing 0.2% SDS. […]
Quantitative proteomics by two-dimensional nano liquid chromatography-tandem mass spectrometry (nLC-MS/MS): For protein-level characterization, the TMT-labeled sample were reconstituted in 0.1% formic acid (FA)/2% acetonitrile for offline high-pH reversed phase separation (RP10) using a Dionex UltiMate 3000 high-performance liquid chromatography (HPLC) system with fraction collection using Chromeleon v.6.8 (Thermo) software. […]

lysozyme = target: T1, lysozyme (Gallus gallus, UniProt P00698); assay: Photochemical labeling of lysozyme with pyridinium salts (General Procedure B, LC/MS); type: biochemical, chicken; conditions: lysozyme labeling
T1 construct: Lysozyme (from chicken egg white, >40,000 units/mg of protein); purchased Sigma Aldrich; host or cells: chicken egg white
Description: General Procedure B: Photochemical Irradiation of Peptides and Proteins: To a 2 mL Pyrex LC/MS vial (Thermo model #03-391-39) were sequentially added solutions containing the desired biomolecule, glutathione (GSH), pyridinium salt, and ammonium acetate (NH4OAc). The resulting solution was diluted to a final volume of 500 μL and then sparged using nitrogen for a minimum of 30 minutes prior to irradiation. The actively sparging solution was then placed in an EvoluChem™ PhotoRedOx Box photoreactor that was equipped with a Kessil, PR160 427 nm LED Lamp and was then irradiated (100% lamp intensity) for the designated time at room temperature while maintaining active sparging. The resultant reaction mixture was then analyzed directly by LC/MS. Analysis of labeling outcomes using LC/MS was performed either by extracted ion chromatogram intensities (method A) or by integrating the area under the peaks associated with peptide content (method B). These values were totaled, and estimated percentages were assigned according to relative intensities of peaks or ion counts.
Labeling of Lysozyme with Pyridinium Salt 2a (Lysozyme-2a Conjugate). Labeling of lysozyme (14.3 kDa) with the pyridinium salt 2a was performed by following general procedure B using the following solutions: lysozyme (27 μL, 182 μM, 10 μM final concentration), pyridinium salt 2a (200 μL, 500 μM, 200 μM final concentration), NH4OAc (100 μL, 100 mM, pH=6.9, 20 mM final concentration), glutathione (15 μL, 10 mM, 300 μM final concentration), and water (158 μL) with a 100% intensity irradiation time of 60 minutes. The reaction mixture was analyzed directly by LC/MS using method A and was estimated to have proceeded in >95% conversion and a 10.9:1 mono:di labeled ratio and 10% glutathionylation of all unlabeled and labeled protein content was observed.
Labeling of Lysozyme with Pyridinium Salt 2b (Lysozyme-2b Conjugate). Labeling of lysozyme (14.3 kDa) with the pyridinium salt 2b was performed by following general procedure Busing the following solutions: lysozyme (19 μL, 262 μM, […]), 2b (181 μL, 554 μM, 200 μM final concentration), NH4OAc (50 μL, 200 mM, pH=6.9, 20 mM final concentration), glutathione (50 μL, 3 mM, 300 μM final concentration), and water (200 μL) with a 100% intensity irradiation time of 10 minutes. The reaction mixture was analyzed directly by LC/MS using method A and was estimated to have proceeded with 83% conversion. […]
Labeling of Lysozyme with Pyridinium Salt 2c (Lysozyme-2c Conjugate). […] The reaction mixture was analyzed directly by LC/MS using method A and was estimated to have proceeded with 85% conversion and a 3.7:1 mono:di labeled ratio and 10% glutathionylation of all protein content was observed. […]

T1 sequence (P00698 19-147): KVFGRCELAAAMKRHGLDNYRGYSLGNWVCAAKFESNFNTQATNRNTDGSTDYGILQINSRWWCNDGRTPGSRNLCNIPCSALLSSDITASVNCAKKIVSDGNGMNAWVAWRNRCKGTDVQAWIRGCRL

SMILES: COc1ccc2cc(-c3cc(C)[n+](N(C)C(=O)OCCCCCCN=[N+]=[N-])c(C)c3)ccc2c1 [pyridinium salt 2d, 1-((((6-azidohexyl)oxy)carbonyl)(methyl)amino)-4-(6-methoxynaphthalen-2-yl)-2,6-dimethylpyridin-1-ium tetrafluoroborate]
- Trp-modified peptide fragments detected showing dose response behavior (HEK293T cells; about 100 μM probe, 60 min 37° C., 440 nm 20 min 4° C., peptide-level enrichment): 290
- plasma membrane crossing / subcellular penetration (HEK293T cells; subcellular localization of modified proteins (UniProt)): readily crosses the plasma membrane
- selectivity for tryptophan (HEK293T cells; taking relative amino acid frequency in human proteins into account, FIG. 19B): about 82%
- Western validation of NPM1 and PARP1 in enriched protein mixtures (HEK293T cells; varying concentrations, with and without blue light, protein-level enrichment): found to contain both proteins
- labeling rate compared to pyridinium salt 2a (lysozyme): enhance rates
